In ChEMBL document CHEMBL2331197, “Alstoniaphyllines A-C, unusual nitrogenous derivatives from the bark of Alstonia macrophylla” (J Nat Prod, 2013):
Activity calls are given as the source filed them. No cut-off for these calls is given here.

How the values were obtained:
[1] = tested on: KB; assay: Cytotoxicity against human KB cells by resazurin assay; type: functional, cell-based
[2] = tested on: Plasmodium falciparum; assay: Antimalarial activity against multidrug-resistant Plasmodium falciparum K1 by [3H]-hypoxanthine incorporation assay; type: functional, organism-based

COc1ccc2c(c1)N(C)C(=O)[C@@]21C[C@@H]2N[C@H]1C[C@H]1C(C(C)=O)=COC[C@@H]21
IC50 [1]: > 100 µM | Activity [2]: Active

C/C=C1/CN2CC[C@@]34c5cc(OC)ccc5N(C)[C@H]3[C@@H]2C[C@H]1[C@@H]4C(=O)OC
IC50 [1]: > 100 µM

CC(=O)C1=COC[C@H]2[C@@H]3C[C@@]4(C(=O)N(C)c5ccccc54)[C@H](C[C@@H]12)N3 [ALSTONAL]
IC50 [1]: > 100 µM | IC50 [2]: 7.6 µM

CC1=C(C=O)[C@@H]2C[C@H]3c4c(c5ccccc5n4C)C[C@@H]([C@@H]2CO1)N3C [ALSTONERINAL]
IC50 [1]: > 100 µM

CC(=O)C1=COC[C@@H]2[C@H]1C[C@H]1C(=O)C[C@@H]2N1C [ALSTONIAPHYLLINE A]
IC50 [1]: > 100 µM

C[C@@H]1OC[C@@H]2[C@@H](C[C@H]3C(=O)C[C@@H]2N3C)[C@@H]1CO [ALSTONIAPHYLLINE B]
IC50 [1]: > 100 µM

C[C@@H]1OC[C@@H]2[C@@H](C[C@H]3C4=Nc5ccccc5C4=C[C@@H]2[N+]3(C)[O-])[C@@H]1CO (stereo not given in full) [ALSTONIAPHYLLINE C]
IC50 [1]: > 100 µM

COc1ccc2c3c(n(C)c2c1)[C@@H]1C[C@H]2C(C=O)=C(C)OC[C@H]2[C@H](C3)N1C [ALSTOPHYLLAL]
IC50 [1]: > 100 µM

CC(=O)C1=COC[C@@H]2[C@H]1C[C@H]1[C@H](O)C[C@@H]2N1C [ANGUSTIMALINE]
IC50 [1]: > 100 µM

COc1cccc2c1C(=O)c1c(O)c3c(c(O)c1C2=O)C[C@@](O)(C(=O)CO)C[C@@H]3O[C@H]1C[C@H](N)[C@H](O)[C@H](C)O1 [DOXORUBICIN]
IC50 [1]: 0.55 µM

Cc1c2ccncc2c(C)c2c1[nH]c1ccccc12 [ELLIPTECINE]
IC50 [1]: 4.87 µM

C[C@@H]1OC[C@@H]2[C@@H](C[C@H]3c4c(c5ccccc5n4C)C[C@@H]2N3C)[C@H]1CO [MACROCARPINE B]
IC50 [1]: > 100 µM

C[C@@H]1OC[C@@H]2[C@@H](C[C@H]3c4c(c5ccccc5n4C)C[C@@H]2N3C)[C@@H]1C=O [Talcarpine]
IC50 [1]: > 100 µM
